Experimental findings from US20040009485A1, “Cellular arrays for the identification of altered gene expression” (priority 2002, published 2004) are described below.

Read-outs that look alike come from different tables or passages of the source.

Test [1] concerns OxyR regulon gene fusions (ahpC-luxCDABE). Conditions: for H2O2 response ratio: ahpC fusion, 0.002% hydrogen peroxide, 30 minutes, LB. As for the experimental part: (§1) To test the stress responses, one or two single colonies of each selected strain were used to inoculate 5.0 ml of LB medium containing 150 μg/ml of ampicillin. These cultures were grown overnight at 37° C. then diluted by adding 50 μl or 100 μl of the overnight culture into 10.0 ml of fresh LB medium (without ampicillin) and grown with agitation at 37° C. until the culture was in exponential phase with readings on a Klett-Summerson colorimeter containing the red filter of between 10 and 40. These actively growing cultures were immediately used to initiate a stress response experiment by adding 50 μl of cultures to 50 μl of LB medium containing various concentrations of chemical in the wells a 96 well luminometer plate. This division of the actively growing culture at the time of chemical addition ensured identical populations were present when the stress was imposed. Light production was measured in a Dynex ML3000 luminometer at 37° C. The dimensionless units of light production, relative light units (RLU), are obtained by comparison with the light reading from an internal light-emitting diode. The cycle mode of the ML3000 luminometer, similar to previous descriptions (Van Dyk et al., Appl. Environ. Microbiol. 60:1414-120) was used.
To test if these strains would report on activation of the OxyR-controlled oxidative stress response, each was treated with hydrogen peroxide at 0.016, 0.008, 0.004, 0.002, 0.001, 0.0005, 0.00025%.

In test [2] the test system is ahpC-luxCDABE fusions in E. coli host strain DPD2228 (pcnB80). The following applies: for H2O2 response ratio in pcnB- host: 0.002% hydrogen peroxide, 30 minutes, LB. As for the experimental part:
as §1

As to `OO` [H2O2, hydrogen peroxide], the H2O2 response ratio in test [1] (DPD2283 (lux-a.pk051.d5)) is recorded as 1.3; in test [1] (DPD2284 (lux-a.pk051.e3)), 1.6; in test [1] (DPD2285 (lux-a.pk03.d6)) it was 1.2. Besides, the induction of bioluminescence result in test [1] (three ahpC-luxCDABE strains, 0.016-0.00025% hydrogen peroxide) is “minimally induced”; in test [2] (both ahpC-luxCDABE strains in pcnB- host, each of seven conc 0.004-0.00006%) it was “dramatically induced increased bioluminescence”. In addition, the entries for the “H2O2 response ratio in pcnB- host” value in test [2] (plasmid of DPD2283 (lux-a.pk051.d5) in DPD2228) and in test [2] (plasmid of DPD2284 (lux-a.pk051.e3) in DPD2228) were 16.5 and 15.3, respectively.
